Data reported in patent US20230338391A1, “TREATMENT FOR DEPRESSION” (TAKEDA PHARMACEUTICAL COMPANY LIMITED, priority 2020, published 2023).
Read-outs that look alike come from different tables or passages of the source.

Key:
[1] = 13-week NHP GLP toxicity study: clinical signs, EEG/EMG telemetry, pathology; type: in vivo, Monkey (Macaca fascicularis); details: cynomolgus monkey, in vivo, oral gavage once daily, 13 weeks, read-out: no-observed-adverse-effect level (NOAEL)
Procedure: (§1) The appropriate volume of reverse osmosis water was added into a suitable sized container and heated between 70° C. and 90° C. An appropriate amount of MC (METOLOSE SM-100, Shin-Etsu Chemical Co Ltd) was weighed and transferred (while stirring) to the container with heated reverse osmosis water. The solution was cooled down until a clear solution was obtained (an ice bath was used). The solution was stored refrigerated (set to 2-8° C.) until used. Unused reference item/vehicle was discarded when not needed anymore. To make a 0.2 w/v % suspension of COMPOUND A, an appropriate amount of the test item was weighed. A small volume of vehicle was added to slowly wet the test item. The appropriate volume of vehicle was added to reach the final volume and the formulation was homogenized using a homogenizer until a uniform suspension was achieved and stirred for 30 to 59 minutes. The 0.2 w/v % suspension was then diluted with the 0.5 w/v % MC in reverse osmosis water solution to make 0.12, 0.06 and 0.006 w/v % suspensions. However, on Oct. 1, 2015, the 1.2 mg/mL formulation was prepared by dissolving the appropriate amount of COMPOUND A in the vehicle, instead of diluting the 2 mg/mL formulation to reach the appropriate concentration. This deviation had no impact on the study since the appropriate concentration was prepared.
(§2) After suitable acclimation to the dosing procedure, the reference item (0.5% methylcellulose (MC) in reverse osmosis water) was administered once by oral gavage during Phase 1 of the study. The objective of Phase 1 was to confirm the EEG morphologies in all animals before and after dosing procedures. The traces generated during Phase 1 were used for interpretation of Phase 2 data. Beginning 1 day later, the reference item or COMPOUND A was administered once daily by oral gavage for 90 days during Phase 2 as shown in Table 7.
(§3) Clinical signs (ill health, behavioral changes, etc.) were recorded on surviving animals twice daily during all phases of study and monitored continuously for at least 16 hours after the 1st, 3rd, 7th, 14th and 28th dose administration in Phase 2, using digital cameras (to minimize stress for the animals) or using direct observation when needed or during dose administration. Additional clinical observations were performed when deemed necessary.
(§4) EEGs and EMGs were obtained from the animals using telemetry transmitter leads inserted subcutaneously using bipolar derivations (EMG, C4-O2 and Cz-Oz).
(§5) EEG and EMG monitoring was recorded continuously (except during study designated procedures or other procedures such as data backup) from at least 72 hours prior to the first dose of Phase 1 to at least 24 hours after the 28th dose of Phase 2. EEG and EMG monitoring was also recorded continuously (except during study designated procedures or other procedures such as data backup) for a period of at least 36 hours (from at least 12 hours prior to dosing until at least 24 hours post-dosing) once in the 8th week of dosing and once towards the end of the dosing period (13th week of dosing) in Phase 2.
(§6) Using the NeuroScore software (Data Science International), EEGs were analyzed from at least 24 hours prior to the first dose of Phase 1 to at least 24 hours after the 28th dose in Phase 2, and for a period of at least 36 hours (from at least 12 hours prior to dosing until at least 24 hours post-dosing) once in the 8th week of dosing and once towards the end of the dosing period (13th week of dosing) in Phase 2. […] EMGs were used to aid in the interpretation of the EEG data.
(§7) EEGs were reviewed by the Neurologist at the following timepoints: 1-1.5, 2.5-5.5, and 7-7.5 hours following the 1st, 3rd, 7th, 14th and 28th dose administration in Phase 2. The observance of abnormal behaviors/convulsions in individual animals by laboratory personnel also triggered an EEG review for approximately the same time period during which the abnormal behavior was witnessed. […]

cynomolgus monkeys = experiment: as above; type: in vivo, Monkey (Macaca fascicularis)
Procedure: as §1, §2, §3, §4, §5, §6, §7

healthy subjects = experiment: TMS crossover study: safety and tolerability; details: single doses 0.5 mg and 6 mg oral tablets

CC1=CN2CCS(=O)(=O)N=C2C(c2ccc(OC3CCCCC3)cc2)=N1 [COMPOUND A, 9-[4-(Cyclohexyloxy)phenyl]-7-methyl-3,4-dihydropyrazino[2,1-c][1,2,4]thiadiazine 2,2-dioxide]
NOAEL at 13 weeks ([1]; female, females): 3 mg/kg/day | NOAEL at 13 weeks ([1]; male, males): 10 mg/kg/day | qEEG total power (cynomolgus monkeys; 0.3 and 3 mg/kg/day, after 2nd and 27th dose): associated with an increase in total EEG power | clinical signs and EEG (cynomolgus monkeys; 0.3 or 3.0 mg/kg/day, males or females): no adverse clinical signs or abnormal EEG changes | clinical signs (cynomolgus monkeys; females, 6.0 mg/kg/day): myoclonic jerks, decreased activity, weakness, and uncoordination were observed | clinical signs (cynomolgus monkeys; females, 10.0 mg/kg/day): salivation, excessive licking, decreased activity, weakness, lying on cage floor, nystagmus, uncoordination, muscle twitches and myoclonic jerks were observed | generalized seizures (EEG) (cynomolgus monkeys; females, 10.0 mg/kg/day): Self-limiting generalized seizures, confirmed by EEG, were observed in two female monkeys | clinical signs (cynomolgus monkeys; males, 10 mg/kg/day): decreased activity, tremors and circling were observed at 10 mg/kg/day but were not considered adverse | deaths or SAEs (healthy subjects): No deaths or SAEs were reported
